In article PMC8550792, “Evolution of kinase polypharmacology across HSP90 drug discovery” (Cell Chemical Biology, 2021):

Columns and labels:
Assay in all cases: biochemical
Format in all cases: biochemical
382 unique human kinases [1] = molecular target: T1, 382 unique human kinases (Homo sapiens, UniProt P08581, Y1235D); settings: c-MET (Y1235D), 10 uM; for remaining activity at 10 µM: read-out: % Enzyme Activity (relative to DMSO controls)
T1 construct: purchased Reaction Biology (HotSpot contract assay)

382 unique human kinases [2] = molecular target: T2, 382 unique human kinases (Homo sapiens, UniProt O00418); settings: kinase EEF2K, compound 10 uM; for remaining activity at 10 µM: read-out: % Enzyme Activity (relative to DMSO controls)
T2 construct: purchased Reaction Biology (HotSpot contract assay)
T2 sequence (O00418 1-725): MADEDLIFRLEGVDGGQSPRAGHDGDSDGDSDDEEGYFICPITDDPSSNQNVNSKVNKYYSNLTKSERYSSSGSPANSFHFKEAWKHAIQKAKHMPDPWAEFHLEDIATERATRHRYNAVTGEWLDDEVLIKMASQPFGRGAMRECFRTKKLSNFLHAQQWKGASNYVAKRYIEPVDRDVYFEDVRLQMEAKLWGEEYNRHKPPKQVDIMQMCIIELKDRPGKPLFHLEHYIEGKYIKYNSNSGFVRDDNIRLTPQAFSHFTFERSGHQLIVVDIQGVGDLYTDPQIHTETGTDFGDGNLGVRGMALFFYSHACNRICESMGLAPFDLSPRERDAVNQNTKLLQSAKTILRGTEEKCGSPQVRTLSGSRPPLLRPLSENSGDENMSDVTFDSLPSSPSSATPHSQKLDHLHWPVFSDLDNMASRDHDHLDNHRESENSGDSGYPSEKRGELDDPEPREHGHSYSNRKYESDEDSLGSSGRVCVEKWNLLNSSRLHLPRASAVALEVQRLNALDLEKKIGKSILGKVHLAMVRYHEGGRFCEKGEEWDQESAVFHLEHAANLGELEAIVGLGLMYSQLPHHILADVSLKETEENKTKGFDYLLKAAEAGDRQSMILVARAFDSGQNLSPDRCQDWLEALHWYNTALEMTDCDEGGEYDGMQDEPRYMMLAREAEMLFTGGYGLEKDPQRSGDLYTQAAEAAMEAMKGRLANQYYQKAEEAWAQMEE

382 unique human kinases [3] = molecular target: T3, 382 unique human kinases (Homo sapiens, UniProt O00506); settings: STK25/YSK1, compound at 10 uM, duplicate values; for remaining activity at 10 µM: read-out: % Enzyme Activity (relative to DMSO controls)
T3 construct: purchased Reaction Biology (HotSpot contract assay)

382 unique human kinases [4] = molecular target: T4, 382 unique human kinases (Homo sapiens, UniProt Q9H2G2); settings: SLK/STK2, 10 uM; for remaining activity at 10 µM: read-out: % Enzyme Activity (relative to DMSO controls)
T4 construct: purchased Reaction Biology (HotSpot contract assay)

382 unique human kinases [5] = molecular target: T5, 382 unique human kinases (Homo sapiens, UniProt Q9UEW8); settings: STK39/STLK3, 10 uM; for remaining activity at 10 µM: read-out: % Enzyme Activity (relative to DMSO controls)
T5 construct: purchased Reaction Biology (HotSpot contract assay)

382 unique human kinases [6] = molecular target: T6, 382 unique human kinases (Homo sapiens, UniProt P00533, L747S); settings: kinase EGFR (L747S), compound 10 uM; for remaining activity at 10 µM: read-out: % Enzyme Activity (relative to DMSO controls)
T6 construct: purchased Reaction Biology (HotSpot contract assay)

382 unique human kinases [7] = molecular target: T7, 382 unique human kinases (Homo sapiens, UniProt Q9NWZ3); settings: kinase IRAK4, compound 10 uM; for remaining activity at 10 µM: read-out: % Enzyme Activity (relative to DMSO controls)
T7 construct: purchased Reaction Biology (HotSpot contract assay)
T7 sequence (Q9NWZ3 1-460): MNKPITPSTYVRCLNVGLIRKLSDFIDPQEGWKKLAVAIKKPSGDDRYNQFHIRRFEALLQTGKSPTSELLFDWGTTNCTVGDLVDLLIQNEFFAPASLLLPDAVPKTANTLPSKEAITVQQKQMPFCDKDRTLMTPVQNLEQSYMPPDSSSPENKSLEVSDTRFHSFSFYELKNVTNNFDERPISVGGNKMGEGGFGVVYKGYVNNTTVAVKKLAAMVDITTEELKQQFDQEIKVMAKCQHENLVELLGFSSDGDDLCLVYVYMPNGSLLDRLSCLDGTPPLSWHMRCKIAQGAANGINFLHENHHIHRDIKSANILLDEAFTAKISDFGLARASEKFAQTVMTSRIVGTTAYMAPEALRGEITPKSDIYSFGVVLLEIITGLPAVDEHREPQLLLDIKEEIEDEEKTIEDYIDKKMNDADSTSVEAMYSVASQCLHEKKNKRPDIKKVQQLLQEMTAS

382 unique human kinases [8] = molecular target: T8, 382 unique human kinases (Homo sapiens, UniProt Q15375); settings: kinase EPHA7, compound 10 uM; for remaining activity at 10 µM: read-out: % Enzyme Activity (relative to DMSO controls)
T8 construct: purchased Reaction Biology (HotSpot contract assay)

382 unique human kinases [9] = molecular target: T9, 382 unique human kinases (Homo sapiens, UniProt P10721, D816V); settings: c-Kit (D816V), [ATP] 10 µM, compound 10 uM; for remaining activity at 10 µM: read-out: % Enzyme Activity (relative to DMSO controls)
T9 construct: purchased Reaction Biology (HotSpot contract assay)

382 unique human kinases [10] = molecular target: T10, 382 unique human kinases (Homo sapiens, UniProt P00533, DEL746-750/T790M); settings: EGFR (d746-750/T790M), 10 uM; for remaining activity at 10 µM: read-out: % Enzyme Activity (relative to DMSO controls)
T10 construct: purchased Reaction Biology (HotSpot contract assay)

382 unique human kinases [11] = molecular target: T11, 382 unique human kinases (Homo sapiens, UniProt Q9UK32); settings: RSK4, [ATP] 30 µM, compound 10 uM; for remaining activity at 10 µM: read-out: % Enzyme Activity (relative to DMSO controls)
T11 construct: purchased Reaction Biology (HotSpot contract assay)

382 unique human kinases [12] = molecular target: T12, 382 unique human kinases (Homo sapiens, UniProt O75116); settings: ROCK2, 10 uM; for remaining activity at 10 µM: read-out: % Enzyme Activity (relative to DMSO controls)
T12 construct: purchased Reaction Biology (HotSpot contract assay)

382 unique human kinases [13] = molecular target: T13, 382 unique human kinases (Homo sapiens, UniProt O00141); settings: SGK1, 10 uM; for remaining activity at 10 µM: read-out: % Enzyme Activity (relative to DMSO controls)
T13 construct: purchased Reaction Biology (HotSpot contract assay)
T13 sequence (O00141 1-431): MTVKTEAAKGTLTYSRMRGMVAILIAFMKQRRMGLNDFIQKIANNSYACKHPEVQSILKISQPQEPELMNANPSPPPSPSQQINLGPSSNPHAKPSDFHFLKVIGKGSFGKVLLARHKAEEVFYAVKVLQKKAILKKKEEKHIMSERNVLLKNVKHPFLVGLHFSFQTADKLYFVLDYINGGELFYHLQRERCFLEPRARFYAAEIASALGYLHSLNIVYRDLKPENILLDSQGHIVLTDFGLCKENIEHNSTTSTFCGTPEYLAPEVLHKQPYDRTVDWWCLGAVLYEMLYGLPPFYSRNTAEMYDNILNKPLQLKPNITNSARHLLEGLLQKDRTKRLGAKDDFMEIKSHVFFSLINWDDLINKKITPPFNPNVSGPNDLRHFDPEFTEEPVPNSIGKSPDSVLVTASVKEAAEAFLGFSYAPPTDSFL

382 unique human kinases [14] = molecular target: T14, 382 unique human kinases (Homo sapiens, UniProt Q9UIK4); settings: DAPK2, 10 uM; for remaining activity at 10 µM: read-out: % Enzyme Activity (relative to DMSO controls)
T14 construct: purchased Reaction Biology (HotSpot contract assay)

382 unique human kinases [15] = molecular target: T15, 382 unique human kinases (Homo sapiens, UniProt P07948); settings: LYN, [ATP] 15 µM, compound 10 uM; for remaining activity at 10 µM: read-out: % Enzyme Activity (relative to DMSO controls)
T15 construct: purchased Reaction Biology (HotSpot contract assay)
T15 sequence (P07948 whole entry): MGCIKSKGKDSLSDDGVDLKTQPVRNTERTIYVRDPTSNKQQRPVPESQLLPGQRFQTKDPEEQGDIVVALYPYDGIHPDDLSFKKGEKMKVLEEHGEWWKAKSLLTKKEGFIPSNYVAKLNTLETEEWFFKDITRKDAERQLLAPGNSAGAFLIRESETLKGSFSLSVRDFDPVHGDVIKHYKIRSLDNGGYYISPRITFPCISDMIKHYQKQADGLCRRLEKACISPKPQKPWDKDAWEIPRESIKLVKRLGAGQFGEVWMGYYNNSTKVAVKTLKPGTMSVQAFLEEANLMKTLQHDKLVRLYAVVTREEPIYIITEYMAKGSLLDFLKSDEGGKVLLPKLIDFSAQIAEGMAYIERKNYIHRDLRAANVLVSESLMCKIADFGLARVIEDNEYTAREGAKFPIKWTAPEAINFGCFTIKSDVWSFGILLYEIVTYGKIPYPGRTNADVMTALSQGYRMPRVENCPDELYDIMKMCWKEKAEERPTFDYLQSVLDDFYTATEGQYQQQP

T8 sequence (Q15375 28-998): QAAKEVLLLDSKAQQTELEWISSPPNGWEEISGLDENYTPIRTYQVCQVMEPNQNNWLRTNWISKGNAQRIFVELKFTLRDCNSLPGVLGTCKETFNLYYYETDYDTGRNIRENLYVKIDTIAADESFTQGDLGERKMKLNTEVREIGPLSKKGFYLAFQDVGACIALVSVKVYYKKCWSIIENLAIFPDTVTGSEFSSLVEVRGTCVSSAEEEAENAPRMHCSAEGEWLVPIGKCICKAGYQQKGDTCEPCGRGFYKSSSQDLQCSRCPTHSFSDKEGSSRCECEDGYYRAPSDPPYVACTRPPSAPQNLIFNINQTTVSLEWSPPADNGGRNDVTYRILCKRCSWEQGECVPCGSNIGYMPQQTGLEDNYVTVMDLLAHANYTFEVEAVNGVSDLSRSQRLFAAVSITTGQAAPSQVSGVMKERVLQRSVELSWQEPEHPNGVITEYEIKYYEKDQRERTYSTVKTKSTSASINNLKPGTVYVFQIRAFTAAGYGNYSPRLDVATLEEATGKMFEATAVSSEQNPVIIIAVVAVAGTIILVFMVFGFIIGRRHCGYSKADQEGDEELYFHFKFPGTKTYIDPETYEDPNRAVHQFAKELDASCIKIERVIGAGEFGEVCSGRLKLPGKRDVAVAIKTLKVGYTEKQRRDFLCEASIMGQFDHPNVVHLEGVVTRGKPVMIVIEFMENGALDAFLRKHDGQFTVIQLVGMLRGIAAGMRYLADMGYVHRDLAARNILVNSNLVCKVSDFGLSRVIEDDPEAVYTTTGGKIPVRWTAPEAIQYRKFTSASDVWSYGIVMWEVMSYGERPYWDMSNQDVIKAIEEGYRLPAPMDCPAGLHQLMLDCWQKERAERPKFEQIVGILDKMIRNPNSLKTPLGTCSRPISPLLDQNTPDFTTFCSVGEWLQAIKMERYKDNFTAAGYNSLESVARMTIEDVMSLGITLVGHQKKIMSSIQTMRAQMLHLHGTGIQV
T3 sequence (O00506 whole entry): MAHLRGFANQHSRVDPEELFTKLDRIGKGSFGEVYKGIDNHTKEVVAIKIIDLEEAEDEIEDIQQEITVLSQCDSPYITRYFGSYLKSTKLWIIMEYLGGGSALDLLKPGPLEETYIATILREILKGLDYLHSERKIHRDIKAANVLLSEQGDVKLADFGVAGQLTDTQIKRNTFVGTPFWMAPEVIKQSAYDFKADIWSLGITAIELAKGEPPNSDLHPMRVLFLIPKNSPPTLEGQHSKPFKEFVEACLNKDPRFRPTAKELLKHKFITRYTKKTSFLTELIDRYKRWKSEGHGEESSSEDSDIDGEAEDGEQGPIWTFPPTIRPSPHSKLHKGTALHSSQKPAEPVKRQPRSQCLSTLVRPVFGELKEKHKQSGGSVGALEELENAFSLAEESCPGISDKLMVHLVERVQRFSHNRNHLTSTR
T11 sequence (Q9UK32 whole entry): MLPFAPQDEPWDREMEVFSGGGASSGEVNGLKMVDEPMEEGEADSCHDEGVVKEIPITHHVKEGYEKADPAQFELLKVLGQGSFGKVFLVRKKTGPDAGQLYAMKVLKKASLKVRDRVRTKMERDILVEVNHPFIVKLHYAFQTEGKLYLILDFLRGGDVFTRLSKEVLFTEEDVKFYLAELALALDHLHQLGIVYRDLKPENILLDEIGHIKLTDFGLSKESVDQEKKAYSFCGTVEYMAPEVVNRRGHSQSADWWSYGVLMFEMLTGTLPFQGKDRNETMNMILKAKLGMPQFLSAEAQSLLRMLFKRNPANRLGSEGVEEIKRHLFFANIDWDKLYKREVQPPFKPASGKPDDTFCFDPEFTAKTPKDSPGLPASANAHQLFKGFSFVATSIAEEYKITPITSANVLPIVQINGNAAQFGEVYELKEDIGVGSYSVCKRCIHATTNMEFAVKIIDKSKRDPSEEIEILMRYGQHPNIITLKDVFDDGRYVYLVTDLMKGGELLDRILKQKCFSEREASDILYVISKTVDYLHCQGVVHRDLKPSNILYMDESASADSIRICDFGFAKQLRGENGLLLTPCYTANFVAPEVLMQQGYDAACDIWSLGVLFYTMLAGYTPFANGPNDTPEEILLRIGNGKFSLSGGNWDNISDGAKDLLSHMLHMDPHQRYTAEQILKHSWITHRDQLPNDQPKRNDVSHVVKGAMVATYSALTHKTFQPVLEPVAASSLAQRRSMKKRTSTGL
T12 sequence (O75116 whole entry): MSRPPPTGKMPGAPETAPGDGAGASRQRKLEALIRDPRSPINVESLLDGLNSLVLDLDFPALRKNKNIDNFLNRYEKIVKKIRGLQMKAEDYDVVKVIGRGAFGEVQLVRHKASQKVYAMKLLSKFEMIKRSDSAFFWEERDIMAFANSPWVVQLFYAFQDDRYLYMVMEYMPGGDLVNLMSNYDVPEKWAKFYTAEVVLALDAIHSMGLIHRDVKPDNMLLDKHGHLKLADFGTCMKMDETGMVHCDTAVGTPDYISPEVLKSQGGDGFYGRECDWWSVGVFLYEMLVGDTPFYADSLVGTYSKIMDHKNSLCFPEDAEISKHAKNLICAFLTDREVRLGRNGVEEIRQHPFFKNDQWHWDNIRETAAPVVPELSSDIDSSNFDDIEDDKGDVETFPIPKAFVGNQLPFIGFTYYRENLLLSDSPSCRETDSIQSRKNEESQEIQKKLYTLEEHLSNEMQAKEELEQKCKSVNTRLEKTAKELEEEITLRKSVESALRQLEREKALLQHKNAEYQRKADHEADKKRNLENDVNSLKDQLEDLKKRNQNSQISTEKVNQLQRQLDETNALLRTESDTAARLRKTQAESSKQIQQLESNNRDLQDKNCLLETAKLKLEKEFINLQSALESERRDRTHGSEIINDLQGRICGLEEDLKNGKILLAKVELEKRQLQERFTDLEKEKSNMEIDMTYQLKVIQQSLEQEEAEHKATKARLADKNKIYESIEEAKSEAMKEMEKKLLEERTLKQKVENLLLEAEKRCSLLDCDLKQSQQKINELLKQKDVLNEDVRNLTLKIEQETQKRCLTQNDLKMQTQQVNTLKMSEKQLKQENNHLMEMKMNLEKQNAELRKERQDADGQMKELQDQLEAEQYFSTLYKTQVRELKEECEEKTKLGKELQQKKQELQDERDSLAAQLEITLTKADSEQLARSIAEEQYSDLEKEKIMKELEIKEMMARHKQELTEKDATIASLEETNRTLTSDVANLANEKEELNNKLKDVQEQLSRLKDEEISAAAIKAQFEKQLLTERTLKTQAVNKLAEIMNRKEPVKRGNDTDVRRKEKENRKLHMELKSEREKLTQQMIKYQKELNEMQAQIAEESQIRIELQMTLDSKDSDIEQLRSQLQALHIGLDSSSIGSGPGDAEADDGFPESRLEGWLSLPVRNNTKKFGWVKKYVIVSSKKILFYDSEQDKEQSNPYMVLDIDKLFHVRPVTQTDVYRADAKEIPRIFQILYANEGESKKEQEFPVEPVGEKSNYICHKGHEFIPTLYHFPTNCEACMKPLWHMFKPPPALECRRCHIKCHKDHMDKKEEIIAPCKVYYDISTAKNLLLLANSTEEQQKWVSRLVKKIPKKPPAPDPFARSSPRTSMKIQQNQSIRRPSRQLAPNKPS
T14 sequence (Q9UIK4 whole entry): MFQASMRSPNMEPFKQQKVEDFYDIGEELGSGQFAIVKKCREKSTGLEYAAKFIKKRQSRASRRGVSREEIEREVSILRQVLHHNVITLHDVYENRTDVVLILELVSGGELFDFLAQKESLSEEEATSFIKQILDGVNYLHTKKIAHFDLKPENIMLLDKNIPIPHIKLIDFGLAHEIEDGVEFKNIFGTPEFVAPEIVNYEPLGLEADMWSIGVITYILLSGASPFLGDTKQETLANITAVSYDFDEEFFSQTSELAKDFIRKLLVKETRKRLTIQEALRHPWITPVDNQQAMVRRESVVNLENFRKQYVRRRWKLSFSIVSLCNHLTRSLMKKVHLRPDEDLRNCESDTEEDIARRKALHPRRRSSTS

SMILES | remaining activity at 10 µM (382 unique human kinases [1]) [%] | remaining activity at 10 µM (382 unique human kinases [2]) [%] | remaining activity at 10 µM (382 unique human kinases [3]) [%] | remaining activity at 10 µM (382 unique human kinases [4]) [%] | remaining activity at 10 µM (382 unique human kinases [5]) [%] | remaining activity at 10 µM (382 unique human kinases [6]) [%] | remaining activity at 10 µM (382 unique human kinases [7]) [%] | remaining activity at 10 µM (382 unique human kinases [8]) [%] | remaining activity at 10 µM (382 unique human kinases [9]) [%] | remaining activity at 10 µM (382 unique human kinases [10]) [%] | remaining activity at 10 µM (382 unique human kinases [11]) [%] | remaining activity at 10 µM (382 unique human kinases [12]) [%] | remaining activity at 10 µM (382 unique human kinases [13]) [%] | remaining activity at 10 µM (382 unique human kinases [14]) [%] | remaining activity at 10 µM (382 unique human kinases [15]) [%] | further results
CC(C)c1cc(-c2n[nH]c(=O)n2-c2ccc3c(ccn3C)c2)c(O)cc1O [Ganetespib (STA9090)] | 102 | 89.2 | 107 | 79.5 | 70.5 | 88 | 81.5 | 86.7 | – | – | – | – | – | – | – | –
CC(C)c1cc(-c2n[nH]c(=O)n2-c2ccc3c(ccn3C)c2)c(O)cc1O [Ganetespib] | – | – | – | – | – | – | – | – | 30.4 | 118 | 27.5 | 105 | 99 | 96.6 | 21.7 | –
CCNC(=O)c1noc(-c2cc(C(C)C)c(O)cc2O)c1-c1ccc(CN2CCOCC2)cc1 [Luminespib (AUY-922)] | 73.3 | 105 | 110 | 90.2 | 93.8 | 108 | 118 | 97.9 | – | – | – | – | – | – | – | % Enzyme Activity (relative to DMSO controls) (382 unique human kinases [1]): 71.05%; % Enzyme Activity (relative to DMSO controls) (382 unique human kinases [2]): 102.88%; % Enzyme Activity (relative to DMSO controls) (382 unique human kinases [3]): 107.24%; % Enzyme Activity (relative to DMSO controls) (382 unique human kinases [4]): 89.63%; % Enzyme Activity (relative to DMSO controls) (382 unique human kinases [5]): 90.56%; % Enzyme Activity (relative to DMSO controls) (382 unique human kinases [6]): 107.24%; % Enzyme Activity (relative to DMSO controls) (382 unique human kinases [7]): 106.93%; % Enzyme Activity (relative to DMSO controls) (382 unique human kinases [8]): 95.91%
CCNC(=O)c1noc(-c2cc(C(C)C)c(O)cc2O)c1-c1ccc(CN2CCOCC2)cc1 [Luminespib] | – | – | – | – | – | – | – | – | 68.9 | 100 | 96 | 99.3 | 100 | 95.4 | 39.2 | % Enzyme Activity (relative to DMSO controls) (382 unique human kinases [9]): 67.99%; % Enzyme Activity (relative to DMSO controls) (382 unique human kinases [10]): 99.12%; % Enzyme Activity (relative to DMSO controls) (382 unique human kinases [11]): 94.35%; % Enzyme Activity (relative to DMSO controls) (382 unique human kinases [12]): 98.18%; % Enzyme Activity (relative to DMSO controls) (382 unique human kinases [13]): 99.71%; % Enzyme Activity (relative to DMSO controls) (382 unique human kinases [14]): 94.93%; % Enzyme Activity (relative to DMSO controls) (382 unique human kinases [15]): 38.08%
